In US9326993B2, “Treatment of pulmonary and pleural fibrosis using HSP27 inhibitors” (ONCOGENEX TECHNOLOGIES INC., priority 2011, dated 2016):
Residues, ends and D or L forms follow the SMILES beside them. *: point of attachment. e = 2'-O-(2-methoxyethyl) (MOE); Cbz = O=C(OCc1ccccc1)*; d = 2'-deoxy (DNA)

How the values were obtained:
[1] = test system: human mesothelial Met-5A cells; assay: rTGF-β1-induced EMT in Met-5A cells (western blot, RT-PCR); assay type: cell-based; settings: HSP27 siRNA-depleted cells plus proteasome inhibitor
Method: Mesothelial rat established cell line 4/4 RM4 cells (American Type Culture Collection—ATCC—Rockville, Md.) were seeded in Ham's F10 (Lonza), with FBS 15%. Mesothelial human established cell line MET-5A (ATCC) were seeded in Medium 199 (lonza), 1% L-glutamine, 1% penicillin-streptomycin with 10% FBS. Epithelial human cell line A549 cells (ATCC) and were seeded in Ham's F10 (lonza) with 10% FBS.
For EMT induction and analysis, all the different cells were exposed to their respective medium containing 10 ng/ml recombinant (r)TGF-β1 (R&D system, Lille, France) for 6, 12, 24, or 48 hours.
HSP27 siRNA were purchased from applied bios system (Courtaboeuf, France). The sense and antisense sequence were respectively: 5′-GUUCAAAGCAACCACCUGUtt-3 (SEQ ID No: 4)′ and 5′-ACAGGUGGUUGCUUUGAACtt-3′. (SEQ ID No: 5). They were used at a concentration of 50 nM. SiRNA were transfected using INTERFERin (polyplus, Illkirch, France) following the manufacturer recommendations. 5-6 hours after transfection medium were changed and cells were treated or not with 10 ng/ml TGF-β1 for 12, 24 or 48 hours. Seq ID No. 3 was used as a random control oligonucleotide.
(§1) Protein extraction was made using triton X 100 during 30 min at 4° C., vortexing every 10 min. Protein dosage is made with the modified lowry kit (Biorad, Marne-la-Coquette, France). Equal amounts of protein (30-50 μg) were electrophoresed through 8 to 12% SDS polyacrylamide gels. The separate protein bands were transferred onto a PVDF membrane. The non-specific sites were saturated with a solution of PBS-tween 0.1%, nonfat milk 8%. Membranes were incubated with primary Abs over night at 4° C. Secondary Abs IgG linked to HRP (HorseRadish Peroxidase, Jackson ImmunoResearch Laboratories, PA, USA) were used at a concentration of 1/5000. Enhanced ChemiLuminescent substrat (ECL, santa cruz biotechnology, CA, USA) was used to detect the protein of interest. […]
Total RNA was extracted using TRIzol (Invitrogen, Cergy Pontoise, France) from MET-5A and A549 cells treated or not with rTGF-β1 12 or 24 hours and transfected or not by HSP27 siRNA or plasmid encoding HSP27. […] Quantitative RT-PCR was performed on the cDNA using the SYBR green master mix (promega, Charbonnieres, France). […]

HSP27 = settings: cited from earlier work
[2] = test system: human mesothelial Met-5A cells; assay: Induction of HSP27 overexpression in Met-5A cells; assay type: cell-based
Text: To study the involvement of HSP27 in the EMT process, we induced the overexpression of HSP27 in the human mesothelial Met-5A cells by three different methods: heat shock, staurosporine treatment, and transfection with a plasmid encoding HSP27. […] (Brunet Simioni et al., Oncogene 2009; 28:3332-44) A more specific overexpression was obtained by HSP27 cDNA transfection. […] Conversely, siRNA-meditated depletion of HSP27 inhibits rTGF-β1 induced α-SMA in human […] Met-5A cells and epithelial A549 cells. This decrease in α-SMA content induced by HSP27 depletion seems to be, at least in part, the result of its proteasomal degradation because in the presence of an inhibitor of the proteasome, such as MG132, α-SMA levels were restored

[3] = test system: AdTGF-β1 induced pleural and subpleural fibrosis model in rats; assay: AdTGF-β1 induced pleural and subpleural fibrosis model; assay type: in vivo, rat; settings: for reduction in the lungs volume compared to AdDL administered animals: RCL2 volume, 10 min at 20 cm H20
Text: For experiments on pleural fibrosis we used AdTGF-β1223/225, an adenovirus construct with a mutant TGF-β1 translated into spontaneously bioactive TGF-β1 (AdTGFβ1) and control vectors (AdDL) with no insert in the deleted E1 region. The construction of adenoviral vectors is described in detail elsewhere (DeCologne, 2007, supra; Bett et al. Proc Natl Acad Sci USA 1994; 91:8802-6; Sime et al., J Clin Invest 1997; 100:768-76)
Female Sprague-Dawley rats (Charles River Laboratories) weighing 200-225 g were housed in special pathogen-free conditions. Rodent laboratory food and water were provided ad libitum. The animals were treated in accordance to the guidelines of the Ministère de la Recherche et de laTechnologie (Paris, France). All experiments were approved by the Comitéd'Ethique de l'Universite´ de Bourgogne (Bourgogne, France). All animal procedures were performed with inhalation anesthesia with isoflurane (TEM, Lormont, France). Adenovector administrations were performed by intrapleural injection in 800 μl of NaCl0.9% containing a total of 1.3×10^9 PFU AdTGF-β1, AdDL or AdLacZ. The intrapleural injection protocol was described in details elsewhere (DeCologne, 2007, supra)).
12 mg/kg of control ASO and OGX-427 were daily administrated by intrapleural injection during 5 days after adenoviral administration. Rats were euthanized by abdominal aortic bleeding and lungs were harvested and processed following what was previously described in Decologne et al (DeCologne, 2007, supra)).
Immunohistochemitry: Inflated lungs were transversally cut and paraffin embedded. 5 μm section were performed and stain with primary antibodies (Ab), Mouse monoclonal anti-α-SMA (Sigma, St Quentin Fallavier, France, 1/200), rabbit polyclonal anti-HSP27 (EnzoLife Science, Villeurbanne, France, 1/200) and rabbit polyclonal cleaved caspase 3 (cell signaling, Saint Quentin, France, 1/100). Secondary Abs used were respectively, a goat anti-mouse IgG biotin conjugated and a goat anti-rabbit IgG biotin conjugated. After peroxidase inhibition (PBS plus H2O2, 20 min), lung section were incubated over night at 4° C. with primary ab. Tissue section were after PBS 1× (Phosphate Buffer Saline) wash incubated with the secondary ab (1/500) 45 min. The streptavidin-HRP complex (Jackson ImmunoResearch Laboratories, PA, USA, 1/500) was used 45 min at room temperature. 3-Amino-9-ethylcarbazole/hydrogen peroxide was used as chromagen substrate. Slides were counterstained with hematoxylin.
Total human TGF-β1 was determined from pleural lavage fluid (PLF) using ELISA (R&D Systems, Lille, France), performed according to the recommendations of the manufacturer. The sensitivity of this assay was 7 pg·mL-1.
To assess the role of HSP27 inhibition in the process of fibrogenesis in vivo, we administered OGX427 or its control ASO in the pleural cavity in our AdTGF-β1 induced pleural and subpleural fibrosis model in rats. The concentrations of ASO control and OGX-427 used were those previously described in studies of bladder cancer where the oligonucleotides were administered intra-vesically. (Matsui et al. Mol Cancer Ther 2009; 8:2402-11)
After AdTGF-β1 or AdDL intrapleural administration, rats were daily treated with the ASO control or OGX427 during […] by intra pleural injection. We first confirmed by an ELISA technique that the content on TGF-β1 after AdTGF-β1 intrapleural administration was similar in the pleural lavage fluid (PLF) from all rats, those treated with OGX427 and those treated with a control ASO (FIG. 4A). […] (FIG. 4B)
To determine lung activity, lung volumes were assessed by measuring the volume of RCL2 (fixation solution) that drained into the lungs after 10 min at a constant pressure of 20 cm H20. Compared to AdDL administered animals, AdTGF-β1 administration in ASO control rats induced a reduction in the lungs volume of 55%. […] This effect for the HSP27 inhibitor was only observed in the TGF-β1-exposed animals. […]

[4] = test system: Mesothelial rat primary cells; assay: Spontaneous EMT of primary mesothelial cells over culture passages; assay type: cell-based
Method: For primary cell harvesting, 8 ml of HBSS (Lonza, Paris, France) were injected in the pleural cavity through the diaphragm then removed and followed by a 10 ml trypsin 5%, EDTA 0.4% administration for 30 min. This lavage was removed and placed in 30 ml of DMEM (Dulbecco's Modified Eagle Medium, Lonza) with 15% FBS (Fetal Bovine Serum, Lonza). After centrifugation (1300 rpm, 5 minutes), the cell pellet was re-suspended into 5 ml DMEM, FBS 15% and placed at 37° C., 5% CO2.
Mesothelial rat primary cells were grown in Dulbecco's Modified Eagle's Medium (DMEM) 1% L-glutamine, 1% penicillin-streptomycin with 15% Fetal Bovine Serum (FBS. Lonza, Paris, France). Cells were assessed before culture and from passage 1 to 4.
as §1

CC(C)C[C@@H](C=O)NC(=O)[C@H](CC(C)C)NC(=O)[C@H](CC(C)C)NC(=O)OCc1ccccc1 [MG132] (Cbz-Leu-Leu-Leu-aldehyde)
α-SMA levels after HSP27 depletion [1]: restored

CC(=O)O[C@H]1C(=O)[C@@]2(C)[C@H]([C@H](OC(=O)c3ccccc3)[C@]3(O)C[C@H](OC(=O)[C@H](O)[C@@H](NC(=O)c4ccccc4)c4ccccc4)C(C)=C1C3(C)C)[C@]1(OC(C)=O)CO[C@@H]1C[C@@H]2O [Paclitaxel]
HSP27 expression/levels (HSP27): inhibitor of hsp27 expression

CN[C@@H]1C[C@H]2O[C@@](C)([C@@H]1OC)n1c3ccccc3c3c4c(c5c6ccccc6n2c5c31)C(=O)NC4 [staurosporine]
HSP27 induction [2]: efficient inducers of HSP27 | α-SMA expression/content ([2]; after HSP27 overexpression): increase

ASO control: control oligonucleotide having the sequence CCTTCCCTGAAGGTTCCTCC, also known as ISIS 141923 (listed as DNA, chemistry not given here)
reduction in the lungs volume compared to AdDL administered animals ([3]; AdTGF-β1 rats): 55%

OGX-427: 4-12-4 2′-MOE gapmer antisense oligonucleotide with phosphorothiolated linkages targeting HSP27, made by OncoGenex (Seq. ID No. 2) (antisense GGGACGCGGCGCTCGGTCAT; sugars from the 5' end e4 d12 e4, all C 5-methyl, all phosphorothioate, T or U not given here; listed as Homo sapiens)
increased expression of HSP27 with cell passages ([4]; vs ASO control): blocked | increased expression of α-SMA with cell passages ([4]; vs ASO control): blocked | cell shape (mesothelial phenotype) ([4]; vs control ASO): kept their mesothelial phenotypic shape | lung volumes in AdDL-administered animals, ASO control vs OGX 427 ([3]; AdDL rats (no TGF-β1)): no difference | mesothelial cell migration within the subpleural parenchyma ([3]; AdTGF-β1 + AdLacZ rats): no mesothelial cell migration | morphology of the mesothelial cells ([3]; AdTGF-β1 + AdLacZ rats): did not change | pleural fibrosis (histological evaluation) ([3]; AdTGF-β1 rats): minor pleural fibrosis | HSP27 expression in lungs ([3]; AdTGF-β1 rats, histology): very significant decrease | α-SMA expression in lungs ([3]; AdTGF-β1 rats, histology): very significant decrease | pleural collagen quantified from microscopic images ([3]; AdTGF-β1 rats, vs control antisense): substantial reduction | reduction in the lungs volume compared to AdDL administered animals ([3]; AdTGF-β1 rats): 35% | HSP27 expression in PLF (western blot) ([3]; AdTGF-β1 rats, intra-pleural administration): strongly blocked | TGF-β1 content in pleural lavage fluid (ELISA) ([3]; after AdTGF-β1 intrapleural, 12 mg/kg daily intrapleural, vs control ASO): similar | amount of fibrosis in the pulmonary parenchyma ([3]; collagen in parenchymal subpleural areas): reduces the amount of fibrosis

interferon-γ: cytokine shown to downregulate expression of HSP27
HSP27 expression/levels (HSP27): downregulate expression of HSP27
